Reference: patent US20230099822A1, “MR1 LIGANDS AND PHARMACEUTICAL COMPOSITIONS FOR IMMUNOMODULATION” (UNIVERSITÄT BASEL, priority 2020, published 2023)

Test system: MR1T cell clones AVA34, AC1A4 and MAIT clone MRC25
Assay: MR1 tetramer staining of T cell clones
Type: binding, human
Description: Correct protein conformation was confirmed by performing a plate-bound activation of the MR1T cell clone DGB129. Refolded MR1-compound protein was serially diluted in PBS (1.5-100 μg/mL) and added to a high-protein-binding plate (Nunc, Cat #439454) for 2 h at 37° C. The wells were washed thoroughly with PBS before addition of 5×10^4 cells that were left overnight at 37° C. IL-13 ELISA was then used as an activation readout. The functional monomer was then biotinylated using BirA-500 biotinylation kit (Avidity, Cat #Bulk BirA) overnight at 4° C. Excess biotin was removed using S75 10/30 (GE Healthcare, 29148721) gel filtration before tetramerization with phycoerythrin (PE) streptavidin (Prozyme, Cat #P JRS25) in a 4:1 molar ratio. As control MR1 tetramers, human MR1-5-OP-RU and human MR1-6-FP labelled with APC, PE or AlexaFluor488 were used (The MR1 tetramer technology was developed jointly by Dr. James McCluskey, Dr. Jamie Rossjohn, and Dr. David Fairlie, and the material was produced by the NIH Tetramer Core Facility as permitted to be distributed by the University of Melbourne). […]
Samples were acquired on LSR Fortessa flow cytometer with the FACS Diva software (Becton Dickinson). […] When PBMCs were analyzed, CD14^+ and CD19^+ cells were excluded by staining with fluorescent antibodies detected in the same channel as the Live/Dead staining. All data was analyzed using FlowJo (LLC).

## MR1-6-FP tetramers: control MR1 tetramer, human MR1-6-FP, produced by the NIH Tetramer Core Facility
  tetramer staining of MR1T clone AVA34: not
